Literature values in patent US20100240695A1, “[…] PHARMACEUTICAL COMPOSITIONS” (priority 2006, published 2010).

Conditions: average in a patient population

## Cc1ccc(-c2nc3ccc(C)cn3c2CC(=O)N(C)C)cc1 [zolpidem]
  plasma level below which residual sedative effects are essentially extinguished: below 20 ng/ml
